{
  "source": "patent US20100120700A1",
  "about": "“METHODS AND COMPOSITIONS FOR TREATING CERVICAL CANCER” (priority 2000, published 2010)",
  "test_in_all_cases": "G assay PDZ-PL binding",
  "details_in_all_cases": "peptide 10 uM, protein 5",
  "key": {"NSP #42.5 domain 1": {"biological_target": "T1, NSP #42.5 domain 1 (Homo sapiens, UniProt Q92743)", "T1 construct": "made in house; host or cells: E. coli (DH5alpha or BL-21)", "T1 sequence (Q92743 359-473)": "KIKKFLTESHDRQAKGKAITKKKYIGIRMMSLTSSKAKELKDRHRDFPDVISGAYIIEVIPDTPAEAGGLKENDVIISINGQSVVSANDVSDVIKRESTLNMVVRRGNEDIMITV", "procedure": "(§1) (1) A PDZ-domain polypeptide is bound to a surface, e.g. a protein binding surface. In a preferred embodiment, a GST/PDZ fusion protein containing one or more PDZ domains is bound to a polystyrene 96-well plate. […] In one embodiment, the GST/PDZ fusion protein is bound via an anti-GST antibody that is coated onto the 96-well plate. Adequate binding to the plate can be achieved when: • a. 100 uL per well of 5 ug/mL goat anti-GST polyclonal antibody (Pierce) in PBS is added to a polystyrene 96-well plate (e.g., Num Polysorb) at 4° C. for 12 hours. • b. The plate is blocked by addition of 200 uL per well of PBS/BSA for 2 hours at 4° C. • c. The plate is washed 3 times with PBS. • d. 50 uL per well of 5 ug/mL GST/PDZ fusion protein) or, as a negative control, GST polypeptide alone (i.e. not a fusion protein) in PBS/BSA is added to the plate for 2 hours at 4° C. • e. The plate is again washed 3 times with PBS. […]\n(§2) (3) The binding of the biotinylated peptide to the GST/PDZ fusion protein surface can be detected using a variety of methods and detectors known to one of skill in the art. In one embodiment, 100 uL per well of 0.5 ug/mL streptavidin-horse radish peroxidase (HRP) conjugate dissolved in BSA/PBS is added and allowed to react for 20 minutes at 4° C. The plate is then washed 5 times with 50 mM Tris pH 8.0 containing 0.2% Tween 20, and developed by addition of 100 uL per well of HRP-substrate solution (TMB, Dako) for 20 minutes at room temperature (RT). The reaction of the HRP and its substrate is terminated by addition of 100 uL per well of 1M sulfuric acid, and the absorbance of each well of the plate is read at 450 nm.\n(§3) (4) Specific binding of a PL peptide and a PDZ domain polypeptide is determined by comparing the signal from the well(s) in which the PL peptide and PDZ domain polypeptide are combined, with the background signal(s). The background signal is the signal found in the negative control(s). Typically a specific or selective reaction will be at least twice background signal, more typically more than 5 times background, and most typically 10 or more times the background signal. In addition, a statistically significant reaction will involve multiple measurements of the reaction with the signal and the background differing by at least two standard errors, more typically four standard errors, and most typically six or more standard errors. Correspondingly, a statistical test (e.g. a T-test) comparing repeated measurements of the signal with-repeated measurements of the background will result in a p-value<0.05, more typically a p-value<0.01, and most typically a p-value<0.001 or less. As noted, in an embodiment of the “G” assay, the signal from binding of a given PL peptide to immobilized (surface bound) GST polypeptide alone is one suitable negative control (sometimes referred to as “B 1”). Because all measurement are done in multiples (i.e. at least duplicate) the arithmetic mean (or, equivalently, average.) of several measurements is used in determining the binding, and the standard error of the mean is used in determining the probable error in the measurement of the binding. The standard error of the mean of N measurements equals the square root of the following: the sum of the squares of the difference between each measurement and the mean, divided by the product of (N) and (N−1). Thus, in one embodiment, specific binding of the PDZ protein to the platebound peptide is determined by comparing the mean signal (“mean S”) and standard error of the signal (“SE”) for a particular PL-PDZ combination with the mean B1.\n(§4) For convenience, the assay conditions described in this section are referred to as the “G’ assay” and the “G” assay,” with the specific conditions described in the preceding section on G assays being referred to as the “G° assay.” The “G′ assay” is identical to the “G° assay” except at step (2) the peptide concentration is 10 uM instead of 20 uM. […]"}, "KIAA1526 #126.1 domain 2": {"biological_target": "T2, KIAA1526 #126.1 domain 2 (Homo sapiens, UniProt Q9P202, G331W)", "T2 construct": "made in house; host or cells: E. coli (DH5alpha, BL21 or JM109)", "T2 sequence (Q9P202 272-371 G331W)": "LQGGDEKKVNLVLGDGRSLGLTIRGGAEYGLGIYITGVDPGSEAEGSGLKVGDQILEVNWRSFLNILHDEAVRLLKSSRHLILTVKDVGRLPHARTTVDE", "procedure": "as §1, §2, §3, §4"}, "KIAA0147 domain 4": {"biological_target": "T3, KIAA0147 domain 4 (Homo sapiens, UniProt Q14160)", "T3 construct": "made in house; host or cells: E. coli (DH5alpha, BL21 or JM109)", "T3 sequence (Q14160 1099-1203)": "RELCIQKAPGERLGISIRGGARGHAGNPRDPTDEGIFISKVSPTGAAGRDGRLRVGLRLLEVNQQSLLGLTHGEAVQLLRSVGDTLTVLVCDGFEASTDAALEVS", "procedure": "as §1, §2, §3, §4"}, "EBP50 #287.1 domain 2": {"biological_target": "T4, EBP50 #287.1 domain 2 (Homo sapiens, UniProt O14745)", "T4 construct": "made in house; host or cells: E. coli (DH5alpha, BL21 or JM109)", "T4 sequence (O14745 with tags, fused parts or gaps)": "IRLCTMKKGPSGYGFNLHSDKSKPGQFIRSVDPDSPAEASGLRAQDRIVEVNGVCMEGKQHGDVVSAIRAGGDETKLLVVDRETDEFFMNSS", "procedure": "as §1, §2, §3, §4"}, "EBP50 #167.2 domain 1": {"biological_target": "T5, EBP50 #167.2 domain 1 (Homo sapiens, UniProt O14745)", "T5 construct": "made in house; host or cells: E. coli (DH5alpha or BL-21)", "T5 sequence (O14745 with tags, fused parts or gaps)": "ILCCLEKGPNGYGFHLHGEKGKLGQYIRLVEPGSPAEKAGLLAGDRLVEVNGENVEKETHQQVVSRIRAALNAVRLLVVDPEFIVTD", "procedure": "as §1, §2, §3, §4"}, "DLG1 domain 3": {"biological_target": "T6, DLG1 domain 3 (Homo sapiens, UniProt Q12959)", "T6 construct": "made in house; host or cells: E. coli (DH5alpha or BL-21)", "procedure": "as §1, §2, §3, §4"}, "TAX IP 2 domain 1": {"biological_target": "T7, TAX IP 2 domain 1 (Homo sapiens, UniProt O14908)", "T7 construct": "made in house; host or cells: E. coli (DH5alpha, BL21 or JM109)", "T7 sequence (O14908 131-216)": "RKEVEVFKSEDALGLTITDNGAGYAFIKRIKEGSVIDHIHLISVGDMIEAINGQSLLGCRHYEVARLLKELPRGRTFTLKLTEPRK", "procedure": "as §1, §2, §3, §4"}, "EBP50 #341.1 domain 1": {"biological_target": "T8, EBP50 #341.1 domain 1 (Homo sapiens, UniProt O14745)", "T8 construct": "made in house; host or cells: E. coli (DH5alpha or BL-21)", "procedure": "as §1, §2, §3, §4"}, "LIM Mystique domain 1": {"biological_target": "T9, LIM Mystique domain 1 (Homo sapiens, UniProt Q96JY6)", "T9 construct": "made in house; host or cells: E. coli (DH5alpha, BL21 or JM109), vector pGEX-3X", "T9 sequence (Q96JY6 1-91)": "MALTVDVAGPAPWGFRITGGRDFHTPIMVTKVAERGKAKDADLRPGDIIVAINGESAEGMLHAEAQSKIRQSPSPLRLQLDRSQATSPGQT", "procedure": "as §1, §2, §3, §4"}, "KIAA0561 domain 1": {"biological_target": "T10, KIAA0561 domain 1 (Homo sapiens, UniProt O60307)", "T10 construct": "made in house; host or cells: E. coli (DH5alpha, BL21 or JM109)", "T10 sequence (O60307 with tags, fused parts or gaps)": "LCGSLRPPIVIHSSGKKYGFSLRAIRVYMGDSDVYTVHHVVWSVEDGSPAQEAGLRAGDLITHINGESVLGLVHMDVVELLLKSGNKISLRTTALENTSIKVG", "procedure": "as §1, §2, §3, §4"}, "X-11 beta domain 1": {"biological_target": "T11, X-11 beta domain 1 (Homo sapiens, UniProt Q99767)", "T11 construct": "made in house; host or cells: E. coli (DH5alpha, BL21 or JM109)", "T11 sequence (Q99767 with tags, fused parts or gaps)": "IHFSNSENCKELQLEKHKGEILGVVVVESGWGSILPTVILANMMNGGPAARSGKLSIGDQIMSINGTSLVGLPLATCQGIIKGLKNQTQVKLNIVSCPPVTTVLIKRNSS", "procedure": "as §1, §2, §3, §4"}, "ZO-1 domain 1": {"biological_target": "T12, ZO-1 domain 1 (Homo sapiens, UniProt Q07157)", "T12 construct": "made in house; host or cells: E. coli (DH5alpha, BL21 or JM109)", "T12 sequence (Q07157 with tags, fused parts or gaps)": "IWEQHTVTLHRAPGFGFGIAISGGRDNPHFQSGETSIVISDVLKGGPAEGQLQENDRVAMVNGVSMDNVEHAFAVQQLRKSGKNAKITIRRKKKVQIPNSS", "procedure": "as §1, §2, §3, §4"}, "MINT1 domain 1, 2": {"biological_target": "T13, MINT1 domain 1, 2 (Homo sapiens, UniProt Q02410)", "T13 construct": "When more than one PDZ domain was cloned, the DNA portion cloned represents the PDZ domains and the cDNA portion located between individual domains; made in house; host or cells: E. coli (DH5alpha, BL21 or JM109), vector pGEX-3X", "T13 sequence (Q02410 651-828 limits assumed)": "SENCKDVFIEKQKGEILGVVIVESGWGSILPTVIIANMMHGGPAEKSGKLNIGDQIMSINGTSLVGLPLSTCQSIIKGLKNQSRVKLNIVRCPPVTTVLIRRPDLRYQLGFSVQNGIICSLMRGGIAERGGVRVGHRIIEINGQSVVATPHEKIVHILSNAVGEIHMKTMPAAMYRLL", "procedure": "as §1, §2, §3, §4"}},
  "note": "Values joined by “and” are separate entries in the source; they are usually repeats but may differ in a detail not shown here. Equal entries are not always repeated.",
  "data": [
    {"substance": "20 mer peptide corresponding to the C-terminus of HPV16 E6 (PDZ ligand), biotinylated in binding assays; ends SSRTRRETQL (SEQ ID NO: 13) [HPV E6 #16]", "values": [
      {"measurement": "Ave OD", "setting": "NSP #42.5 domain 1; A450 nm", "value": 0.4165},
      {"measurement": "OD S/N", "setting": "NSP #42.5 domain 1; vs GST only well", "value": 1.95},
      {"measurement": "Ave OD", "setting": "KIAA1526 #126.1 domain 2; A450 nm", "value": 0.4625},
      {"measurement": "OD S/N", "setting": "KIAA1526 #126.1 domain 2; vs GST only well", "value": 1.87},
      {"measurement": "Ave OD", "setting": "KIAA0147 domain 4; A450 nm", "value": "0.464 and 0.3795"},
      {"measurement": "OD S/N", "setting": "KIAA0147 domain 4; vs GST only well", "value": "2.17 and 2.34"},
      {"measurement": "Ave OD", "setting": "EBP50 #287.1 domain 2; A450 nm", "value": 0.499},
      {"measurement": "OD S/N", "setting": "EBP50 #287.1 domain 2; vs GST only well", "value": 2.57},
      {"measurement": "Ave OD", "setting": "EBP50 #167.2 domain 1; A450 nm", "value": "0.3805 and 0.3555"},
      {"measurement": "OD S/N", "setting": "EBP50 #167.2 domain 1; vs GST only well", "value": "1.94 and 2.28"},
      {"measurement": "Ave OD", "setting": "DLG1 domain 3; A450 nm", "value": 0.3975},
      {"measurement": "OD S/N", "setting": "DLG1 domain 3; vs GST only well", "value": 2.45},
      {"measurement": "Ave OD", "setting": "TAX IP 2 domain 1; A450 nm", "value": "0.5085 and 0.478"},
      {"measurement": "OD S/N", "setting": "TAX IP 2 domain 1; vs GST only well", "value": "2.37 and 2.48"},
      {"measurement": "Ave OD", "setting": "EBP50 #341.1 domain 1; A450 nm", "value": 0.43},
      {"measurement": "OD S/N", "setting": "EBP50 #341.1 domain 1; vs GST only well", "value": 1.65},
      {"measurement": "Ave OD", "setting": "LIM Mystique domain 1; A450 nm", "value": 0.5955},
      {"measurement": "OD S/N", "setting": "LIM Mystique domain 1; vs GST only well", "value": 2.84},
      {"measurement": "Ave OD", "setting": "KIAA0561 domain 1; A450 nm", "value": 0.3475},
      {"measurement": "OD S/N", "setting": "KIAA0561 domain 1; vs GST only well", "value": 2.44},
      {"measurement": "Ave OD", "setting": "X-11 beta domain 1; A450 nm", "value": 0.352},
      {"measurement": "OD S/N", "setting": "X-11 beta domain 1; vs GST only well", "value": 2.02},
      {"measurement": "Ave OD", "setting": "ZO-1 domain 1; A450 nm", "value": "0.4125 and 0.5215"},
      {"measurement": "OD S/N", "setting": "ZO-1 domain 1; vs GST only well", "value": "1.83 and 2.83"},
      {"measurement": "Ave OD", "setting": "MINT1 domain 1, 2; A450 nm", "value": "0.3655 and 0.6075"},
      {"measurement": "OD S/N", "setting": "MINT1 domain 1, 2; vs GST only well", "value": "1.42 and 2.11"}
    ]}
  ]
}
